Results as given in paper PMC7946891, “Versatility in acyltransferase activity completes chicoric acid biosynthesis in purple coneflower” (Nature Communications, 2021).

Molecular target: T1, EpHCT (Echinacea purpurea, UniProt A0A890VVY1)
T1 construct: full-length CDS, N-terminal 6xHis (pDEST17), E. coli BL21(DE3), Ni-NTA purified
Experiment: in vitro enzyme assay, LC-HRMS product detection
Assay type: biochemical

T1 sequence (A0A890VVY1 1-434): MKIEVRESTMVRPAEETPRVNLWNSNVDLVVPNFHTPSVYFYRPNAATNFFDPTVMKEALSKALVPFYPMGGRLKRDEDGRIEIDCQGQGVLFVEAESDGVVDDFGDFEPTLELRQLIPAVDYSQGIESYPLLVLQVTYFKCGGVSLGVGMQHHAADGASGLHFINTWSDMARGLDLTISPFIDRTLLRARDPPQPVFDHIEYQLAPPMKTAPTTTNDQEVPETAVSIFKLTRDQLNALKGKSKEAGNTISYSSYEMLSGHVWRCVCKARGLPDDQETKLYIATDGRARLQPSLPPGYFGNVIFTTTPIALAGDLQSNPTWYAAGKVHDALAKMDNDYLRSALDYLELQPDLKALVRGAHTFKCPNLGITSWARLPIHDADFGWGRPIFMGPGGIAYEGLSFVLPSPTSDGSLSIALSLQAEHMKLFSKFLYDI

Compound | in vitro enzyme assay, LC-HRMS product detection (p-coumaroyl CoA or caffeoyl CoA as acyl donor) | in vitro enzyme assay, LC-HRMS product detection (shikimic acid as acyl acceptor)
O=C(O)C1=C[C@@H](O)[C@@H](O)[C@H](O)C1 [shikimic acid] | production of p-coumaroyl shikimic acid using p-coumaroyl CoA and shikimic acid as substrates | –
CC(C)(COP(=O)(O)OP(=O)(O)OC[C@H]1O[C@@H](n2cnc3c(N)ncnc32)[C@H](O)[C@@H]1OP(=O)(O)O)[C@@H](O)C(=O)NCCC(=O)NCCSC(=O)/C=C/c1ccc(O)cc1 [p-coumaroyl CoA] | – | production of p-coumaroyl shikimic acid using p-coumaroyl CoA and shikimic acid as substrates
